Experiments:
Test in all cases: relative viability (nuclei count vs DMSO), 5 days (fraction); higher = more cells survive
NCI-H358 = system: NCI-H358
Outline: (§1)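 For relative viability, nuclei counts in treated wells were divided by those in vehicle wells. Lung cancer cell lines had been pin-tool dosed in 1536-well plates the day after seeding and cultured for 5 days, then fixed and stained in one step (final 0.05% Triton X-100, 1% formaldehyde, 1 ug/ml Hoechst) and imaged at 4×. Doses were one drug alone or a fixed anchor-drug dose plus five library-drug doses (not always all listed) in √10 steps, and values are duplicate-plate medians.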

NCI-H2228 = system: NCI-H2228
Outline: as §1

NCI-H1915 = system: NCI-H1915
Outline: as §1

LC-2-ad = system: LC-2-ad
Outline: as §1

SW 1573 = system: SW 1573
Outline: as §1

PC-3 [JPC-3] = system: PC-3 [JPC-3]
Outline: as §1

RERF-LC-KJ = system: RERF-LC-KJ
Outline: as §1

HOP-62 = system: HOP-62
Outline: as §1

NCI-H1792 = system: NCI-H1792
Outline: as §1

LXF-289 = system: LXF-289
Outline: as §1

SK-LU-1 = system: SK-LU-1
Outline: as §1

HCC-15 = system: HCC-15
Outline: as §1

NCI-H2347 = system: NCI-H2347
Outline: as §1

NCI-H2126 = system: NCI-H2126
Outline: as §1

NCI-H1755 = system: NCI-H1755
Outline: as §1

NCI-H647 = system: NCI-H647
Outline: as §1

A-427 = system: A-427
Outline: as §1

NCI-H1734 = system: NCI-H1734
Outline: as §1

NCI-H522 = system: NCI-H522
Outline: as §1

NCI-H1975 = system: NCI-H1975
Outline: as §1

NCI-H2342 = system: NCI-H2342
Outline: as §1

O=c1cc(N2CCOCC2)oc2c(-c3cccc4c3sc3ccccc34)cccc12 + CCNC(=O)c1noc(-c2cc(C(C)C)c(O)cc2O)c1-c1ccc(CN2CCOCC2)cc1 [Luminespib] (partner 0.01 µM) was tested, and the relative viability (NCI-H358; first compound 0.01 µM) was 0.235, the relative viability (NCI-H358; first compound 0.03162 µM) was 0.397 and the relative viability (NCI-H358; first compound 0.1 µM) was 0.33. The relative viability (NCI-H358; first compound 0.3162 µM) was 0.229, the relative viability (NCI-H358; first compound 1 µM) was 0.332 and the relative viability (NCI-H2228; first compound 0.01 µM) was 0.151. The relative viability (NCI-H2228; first compound 0.03162 µM) was 0.112, the relative viability (NCI-H2228; first compound 0.1 µM) was 0.125 and the relative viability (NCI-H2228; first compound 0.3162 µM) was 0.191. For the same molecule, the relative viability (NCI-H2228; first compound 1 µM) was 0.133, the relative viability (NCI-H1915; first compound 0.01 µM) was 0.875 and the relative viability (NCI-H1915; first compound 0.03162 µM) was 0.831. For the same molecule, the relative viability (NCI-H1915; first compound 0.1 µM) was 0.807, the relative viability (NCI-H1915; first compound 0.3162 µM) was 0.791 and the relative viability (NCI-H1915; first compound 1 µM) was 0.855. For the same molecule, the relative viability (LC-2-ad; first compound 0.01 µM) was 1.04, the relative viability (LC-2-ad; first compound 0.03162 µM) was 1.12 and the relative viability (LC-2-ad; first compound 0.1 µM) was 0.978. It also gave a relative viability (LC-2-ad; first compound 0.3162 µM) of 1.03, a relative viability (LC-2-ad; first compound 1 µM) of 1.13 and a relative viability (SW 1573; first compound 0.01 µM) of 0.419. The relative viability (SW 1573; first compound 0.03162 µM) was 0.205, the relative viability (SW 1573; first compound 0.1 µM) was 0.211 and the relative viability (SW 1573; first compound 0.3162 µM) was 0.735. The relative viability (SW 1573; first compound 1 µM) was 0.218, the relative viability (PC-3 [JPC-3]; first compound 0.01 µM) was 0.711 and the relative viability (PC-3 [JPC-3]; first compound 0.03162 µM) was 0.694. It also gave a relative viability (PC-3 [JPC-3]; first compound 0.1 µM) of 0.689, a relative viability (PC-3 [JPC-3]; first compound 0.3162 µM) of 0.695 and a relative viability (PC-3 [JPC-3]; first compound 1 µM) of 0.634. For the same molecule, the relative viability (RERF-LC-KJ; first compound 0.01 µM) was 1.31, the relative viability (RERF-LC-KJ; first compound 0.03162 µM) was 1.22 and the relative viability (RERF-LC-KJ; first compound 0.1 µM) was 1.48. The relative viability (RERF-LC-KJ; first compound 0.3162 µM) was 1.07, the relative viability (RERF-LC-KJ; first compound 1 µM) was 1.21 and the relative viability (HOP-62; first compound 0.01 µM) was 1.05. The relative viability (HOP-62; first compound 0.03162 µM) was 0.822, the relative viability (HOP-62; first compound 0.1 µM) was 0.842 and the relative viability (HOP-62; first compound 0.3162 µM) was 1.03. The relative viability (HOP-62; first compound 1 µM) was 0.974, the relative viability (NCI-H1792; first compound 0.01 µM) was 0.502 and the relative viability (NCI-H1792; first compound 0.03162 µM) was 0.359. It also gave a relative viability (NCI-H1792; first compound 0.1 µM) of 0.576, a relative viability (NCI-H1792; first compound 0.3162 µM) of 0.497 and a relative viability (NCI-H1792; first compound 1 µM) of 0.531. The relative viability (LXF-289; first compound 0.01 µM) was 0.646, the relative viability (LXF-289; first compound 0.03162 µM) was 0.657 and the relative viability (LXF-289; first compound 0.1 µM) was 0.773. It also gave a relative viability (LXF-289; first compound 0.3162 µM) of 0.752, a relative viability (LXF-289; first compound 1 µM) of 0.714 and a relative viability (SK-LU-1; first compound 0.01 µM) of 0.206. For the same molecule, the relative viability (SK-LU-1; first compound 0.03162 µM) was 0.234, the relative viability (SK-LU-1; first compound 0.1 µM) was 0.201 and the relative viability (SK-LU-1; first compound 0.3162 µM) was 0.206. For the same molecule, the relative viability (SK-LU-1; first compound 1 µM) was 0.215, the relative viability (HCC-15; first compound 0.01 µM) was 0.301 and the relative viability (HCC-15; first compound 0.03162 µM) was 0.294. The relative viability (HCC-15; first compound 0.1 µM) was 0.604, the relative viability (HCC-15; first compound 0.3162 µM) was 0.339 and the relative viability (HCC-15; first compound 1 µM) was 0.344. It also gave a relative viability (NCI-H2347; first compound 0.01 µM) of 0.571, a relative viability (NCI-H2347; first compound 0.03162 µM) of 0.383 and a relative viability (NCI-H2347; first compound 0.1 µM) of 0.641. The relative viability (NCI-H2347; first compound 0.3162 µM) was 0.409, the relative viability (NCI-H2347; first compound 1 µM) was 0.323 and the relative viability (NCI-H2126; first compound 0.01 µM) was 0.923. It also gave a relative viability (NCI-H2126; first compound 0.03162 µM) of 0.893, a relative viability (NCI-H2126; first compound 0.1 µM) of 0.922 and a relative viability (NCI-H2126; first compound 0.3162 µM) of 0.93. It also gave a relative viability (NCI-H2126; first compound 1 µM) of 0.756, a relative viability (NCI-H1755; first compound 0.01 µM) of 0.501 and a relative viability (NCI-H1755; first compound 0.03162 µM) of 0.265. For the same molecule, the relative viability (NCI-H1755; first compound 0.1 µM) was 0.496, the relative viability (NCI-H1755; first compound 0.3162 µM) was 0.419 and the relative viability (NCI-H1755; first compound 1 µM) was 0.563. For the same molecule, the relative viability (NCI-H647; first compound 0.01 µM) was 0.132, the relative viability (NCI-H647; first compound 0.03162 µM) was 0.115 and the relative viability (NCI-H647; first compound 0.1 µM) was 0.101. It also gave a relative viability (NCI-H647; first compound 0.3162 µM) of 0.259, a relative viability (NCI-H647; first compound 1 µM) of 0.209 and a relative viability (A-427; first compound 0.01 µM) of 0.944. It also gave a relative viability (A-427; first compound 0.03162 µM) of 0.903, a relative viability (A-427; first compound 0.1 µM) of 0.898 and a relative viability (A-427; first compound 0.3162 µM) of 0.93. The relative viability (A-427; first compound 1 µM) was 1.01, the relative viability (NCI-H1734; first compound 0.01 µM) was 0.199 and the relative viability (NCI-H1734; first compound 0.03162 µM) was 0.168. The relative viability (NCI-H1734; first compound 0.1 µM) was 0.216, the relative viability (NCI-H1734; first compound 0.3162 µM) was 0.187 and the relative viability (NCI-H1734; first compound 1 µM) was 0.179. For the same molecule, the relative viability (NCI-H522; first compound 0.01 µM) was 1.23, the relative viability (NCI-H522; first compound 0.03162 µM) was 1.37 and the relative viability (NCI-H522; first compound 0.1 µM) was 0.915. For the same molecule, the relative viability (NCI-H522; first compound 0.3162 µM) was 1.06, the relative viability (NCI-H522; first compound 1 µM) was 1.14 and the relative viability (NCI-H1975; first compound 0.01 µM) was 0.198. For the same molecule, the relative viability (NCI-H1975; first compound 0.03162 µM) was 0.242, the relative viability (NCI-H1975; first compound 0.1 µM) was 0.202 and the relative viability (NCI-H1975; first compound 0.3162 µM) was 0.271. For the same molecule, the relative viability (NCI-H1975; first compound 1 µM) was 0.227, the relative viability (NCI-H2342; first compound 0.01 µM) was 0.667 and the relative viability (NCI-H2342; first compound 0.03162 µM) was 0.58. The relative viability (NCI-H2342; first compound 0.1 µM) was 0.696, the relative viability (NCI-H2342; first compound 0.3162 µM) was 0.586 and the relative viability (NCI-H2342; first compound 1 µM) was 0.742.

From the supplement of paper PMC10307832
